# Assays:
# [1] = target: T1, Rat brain delta opioid receptor (Rattus norvegicus, UniProt P33533); test: Rat brain delta opioid receptor binding; conditions: rDOR Ki
# T1 construct: from tissue; host or cells: rat brain
# [2] = target: T2, Rat brain mu opioid receptor (Rattus norvegicus, UniProt P33535); test: Rat brain mu opioid receptor binding assay ([3H]DAMGO); conditions: rMOR Ki
# T2 construct: from tissue; host or cells: forebrain of male Sprague Dawley rats
# [3] = target: T3, human delta opioid receptor (Homo sapiens, UniProt P41143); test: [35S]GTPγS binding assay in CHO-hδ cell membranes; type: biochemical; conditions: hDOR GTPγS EC50, human delta opioid receptor GTPγS functional assay
# T3 construct: purchased Receptor Biology, Inc. (Baltimore, Md.); host or cells: CHO cells expressing the human delta receptor (membranes)
# human mu opioid receptor = target: T4, human mu opioid receptor (Homo sapiens, UniProt P35372); test: [35S]GTPγS binding assay in CHO-hμ cell membranes; type: biochemical; conditions: inhibition relative to 1 uM DAMGO, read-out: hMOR GTPγS % I @10 μM
# T4 construct: purchased Receptor Biology, Inc. (Baltimore, Md.); host or cells: CHO cells expressing the human mu receptor (membranes)
# Procedure: CHO-hμ cell membranes are purchased from Receptor Biology, Inc. (Baltimore, Md.). About 10 mg/ml of membrane protein is suspended in 10 mM TRIS-HC pH 7.2, 2 mM EDTA, 10% sucrose.
# Membranes are maintained at 4-8° C. 1 ml of membranes is added into 15 ml cold binding assay buffer. The assay buffer contains 50 mM HEPES, pH 7.6, 5 mM MgCl2, 100 mM NaCl, 1 mM DTT and 1 mM EDTA. The membrane suspension is homogenized with a Polytron 2 times and centrifuged at 3000 rpm for 10 min. The supernatant is then centrifuged at 18,000 rpm for 20 min. The pellet is saved in a tube and 10 ml assay buffer is added to the tube. The pellet and buffer are mixed with a Polytron.
# The pellet membranes (20 μg/ml) are preincubated with SPA (10 mg/ml) at 25 C′ for 45 min in the assay buffer. The SPA (5 mg/ml) coupled with membranes (10 μg/ml) is then incubated with 0.5 nM [^35S]GTPgS in the same HEPES buffer containing 50 μM GDP in total volume of 200 μl. Increasing concentrations of receptor agonists are used to stimulate [^35S]GTPgS binding. The basal binding is tested in the absence of agonists and non-specific binding is tested in the present 10 μM unlabeled GTPγS. The data are analyzed on a Top counter.
# % of Basal=(stimulate−non-specific)*100/(basal−non specific). % inhibition value values are calculated using a formula, % Inhibition=(% Basal of 1 uM DAMGO−% Basal of compound)*100/(% Basal of 1 uM DAMGO−100)
# mice = test: Mouse Abdominal Irritant Test (MAIT); type: in vivo; conditions: @ 30 (dose printed in the cell)
# Procedure: The procedure used was that described by Collier et al. (1968), with minor modifications. Thirty minutes after the administration of test drug, the animals received an i.p. injection of 5.5 mg/kg of acetylcholine bromide. The mice were then placed into large glass animal jars and were continuously observed for the first occurrence of a characteristic behavioral response (twisting and elongation of the body which extends throughout the hindlimbs) within the specified observation period of 10 minutes. […] Data % of Basal=(stimulate−non-specific)*100/(basal−non-specific). EC50 value values are calculated using a Prism program.
# T1 sequence (P33533 whole entry): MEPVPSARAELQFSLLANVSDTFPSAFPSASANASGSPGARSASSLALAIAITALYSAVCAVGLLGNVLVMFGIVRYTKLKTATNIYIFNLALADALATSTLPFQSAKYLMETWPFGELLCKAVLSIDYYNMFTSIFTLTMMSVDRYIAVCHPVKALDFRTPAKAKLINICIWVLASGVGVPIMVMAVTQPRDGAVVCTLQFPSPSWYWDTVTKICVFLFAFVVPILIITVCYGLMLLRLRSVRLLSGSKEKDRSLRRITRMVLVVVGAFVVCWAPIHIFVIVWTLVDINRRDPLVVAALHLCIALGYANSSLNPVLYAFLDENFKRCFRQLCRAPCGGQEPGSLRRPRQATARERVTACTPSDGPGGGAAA
# T2 sequence (P33535 whole entry): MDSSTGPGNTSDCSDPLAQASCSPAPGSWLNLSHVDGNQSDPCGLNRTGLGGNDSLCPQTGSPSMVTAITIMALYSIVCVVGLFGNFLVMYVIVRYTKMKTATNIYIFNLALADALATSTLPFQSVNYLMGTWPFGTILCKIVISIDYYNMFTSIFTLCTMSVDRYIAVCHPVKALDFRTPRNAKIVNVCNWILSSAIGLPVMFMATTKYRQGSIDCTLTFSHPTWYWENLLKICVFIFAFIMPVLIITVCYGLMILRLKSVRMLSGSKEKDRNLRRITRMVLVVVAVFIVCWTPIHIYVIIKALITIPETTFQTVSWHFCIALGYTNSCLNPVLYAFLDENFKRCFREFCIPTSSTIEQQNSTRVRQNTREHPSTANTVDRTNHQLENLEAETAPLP
# T3 sequence (P41143 whole entry): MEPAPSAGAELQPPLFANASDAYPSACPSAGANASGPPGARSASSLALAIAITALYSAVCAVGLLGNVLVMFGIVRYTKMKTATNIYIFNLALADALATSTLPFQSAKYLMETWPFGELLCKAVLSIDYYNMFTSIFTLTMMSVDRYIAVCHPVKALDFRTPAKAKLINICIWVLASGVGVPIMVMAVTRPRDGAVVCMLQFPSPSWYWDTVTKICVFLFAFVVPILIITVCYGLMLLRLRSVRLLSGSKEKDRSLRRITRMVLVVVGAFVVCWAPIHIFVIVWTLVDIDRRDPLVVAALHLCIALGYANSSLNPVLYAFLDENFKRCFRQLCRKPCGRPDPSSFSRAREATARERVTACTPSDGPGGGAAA
# T4 sequence (P35372 whole entry): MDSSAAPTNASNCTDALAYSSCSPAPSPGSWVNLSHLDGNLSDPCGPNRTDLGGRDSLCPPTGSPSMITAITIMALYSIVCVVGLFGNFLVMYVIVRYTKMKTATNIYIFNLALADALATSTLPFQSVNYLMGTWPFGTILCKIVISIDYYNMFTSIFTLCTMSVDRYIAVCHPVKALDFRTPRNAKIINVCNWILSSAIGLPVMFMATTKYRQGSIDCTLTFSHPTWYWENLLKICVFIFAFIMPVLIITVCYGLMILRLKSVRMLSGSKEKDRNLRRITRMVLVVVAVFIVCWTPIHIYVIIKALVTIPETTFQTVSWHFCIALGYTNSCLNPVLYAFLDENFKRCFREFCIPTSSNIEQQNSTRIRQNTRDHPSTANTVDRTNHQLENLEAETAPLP
structure (smiles),measurement,setting,value
"CCN(CC)C(=O)c1ccc2c(c1)Oc1ccccc1C2=C1CC2CCC(C1)N2Cc1ccoc1 [Compound 25, 9-(8-Furan-3-ylmethyl-8-aza-bicyclo[3.2.1]oct-3-ylidene)-9H-xanthene-3-carboxylic acid diethylamide]",Ki,[1],0.01 nM
same,Ki,[2],879 nM
same,EC50,[3],1.39 nM
same,inhibition at 10 µM,human mu opioid receptor,74%
same,MAIT % I,mice,30(@ 30) %
